pKd: −log10 of the molar value. Converted amounts (≈) assume the structure as drawn. Blank lines part the entries; values can stand above or below the compound they belong to.
Legend:
[1] = target: T1, HMBS (Homo sapiens, UniProt P08397); test: Octet RED KD determination (Example 21); assay type: binding; set-up: Full-length HMBS was cloned into pET-28a(+)-TEV vector and transformed into BL21 (DE3) cells for expression; 6xHis (N, cleaved yes); TEV protease cleavage site (N, cleaved yes); made in house; host or cells: E. coli BL21 (DE3); details: steady state analysis, 6.25 to 500 μM, PBS-P+ 5% DMSO
T1 sequence (P08397 1-361): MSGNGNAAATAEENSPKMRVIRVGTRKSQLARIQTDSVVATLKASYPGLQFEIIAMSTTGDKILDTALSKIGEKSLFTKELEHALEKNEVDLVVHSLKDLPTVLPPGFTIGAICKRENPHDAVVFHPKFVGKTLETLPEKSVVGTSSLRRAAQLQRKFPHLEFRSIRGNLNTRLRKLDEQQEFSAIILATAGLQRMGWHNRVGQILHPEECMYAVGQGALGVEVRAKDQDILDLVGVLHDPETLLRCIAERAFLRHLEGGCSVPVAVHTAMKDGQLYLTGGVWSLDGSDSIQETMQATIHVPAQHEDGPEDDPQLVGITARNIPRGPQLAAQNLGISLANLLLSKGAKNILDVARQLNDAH
Procedure: Octet RED (Forte Bio) was used for screening binding and determining the KD values of various compounds. OctetRED is based on the technique called Bio-layer interferometry (BLI). It measures changes in an interference pattern generated from visible light reflected from an optical layer and a biolayer containing proteins of interest. In the assay the target protein is biotinylated and coupled as a layer on the optic probe (Super Strepavidin). The concentration series was from 6.25 to 500 μM.
For the analysis method of KD determination, steady state analysis was used, where the response from steady state of the association phase was used for determining the binding curve for the analyte. Buffer for the analysis was selected to PBS-P+5% DMSO.

[2] = Solubility in DMSO and in buffer (Table 5); assay type: physicochemical; details: for Soluble in DMSO (100%): 100% DMSO; for solubility: aqueous buffer, numeric values; for solubility / Solubility in buffer: buffer; for Solubility in buffer: stated in words
[3] = target: T2, WT-HMBS (Homo sapiens, UniProt P08397); test: Octet RED96 KD determination (Example 22); assay type: binding; details: PBS-P+ 5% DMSO; for Binding: Octet RED96, 3.1 to 150 μM; for pKd: Octet RED96, steady state, sigmoidal fitting, 3.1 to 150 μM
T2 construct: Full-length HMBS was cloned into pET-28a(+)-TEV vector and transformed into BL21 (DE3) cells for expression; 6xHis (N, cleaved yes); TEV protease cleavage site (N, cleaved yes); made in house; host or cells: E. coli BL21 (DE3)
T2 sequence (P08397 1-361): T1 sequence (P08397 1-361)
Procedure: Octet RED96 (Forte Bio) was used for screening binding and determining the KD values for certain compounds. In the assay the target protein (WT-HMBS) was biotinylated and coupled as a layer on the optic probe. The concentration series for the tested compounds were from 3.1 to 150 μM, dissolved in PBS-P+5% DMSO.
For the analysis method of KD determination, steady state analysis was used in which the response from steady-state of the association phase was used for determining the binding curve for the analyte. KD values were calculated using sigmoidal fitting. The buffer for the analysis was selected to PBS-P+5% DMSO.

[4] = target: T1, HMBS; test: Activity measurements in vitro (Example 23, TECAN plate reader); assay type: biochemical; details: 5 and 50 μM compound in 2.5% DMSO, 30 min at 37° C., compared to HMBS with DMSO only
Procedure: Activity measurements were carried out using TECAN plate reader for absorbance measurements. Activity measurements were based on measuring the light absorbance at 405 nm for determining the concentration of formed product, preuroporphyrinogen. Standard curve for measurements was measured using absorbance of known concentrations for Uroporphyrin I dihydrochloride, the cyclic derivative of preuroporphyrinogen. Two concentrations of the compound of Example 14, i.e. 5 and 50 μM in 2.5% DMSO were used. Protein was incubated 30 min in 37° C. with the compound, and mixed with MIX-buffer (50 mM HEPES pH 8, 2.5% DMSO) on Corning 96 well plate (clear bottom, half area, black). The solutions were pre-warmed to 37° C. prior to reaction. Reaction was started by adding PBG and after 5 min the reaction was stopped by adding the STOP solution (5 M HCl and 0.1% p-Benzoquinone mixed 1:1). Wells were covered and protected from light during the whole reaction.

[5] = target: T2, WT-HMBS; test: DSF thermal upshift (ΔTm) of HMBS; assay type: binding; details: Table 3, average compound concentration 122 μM (2% DMSO)
Procedure: Compounds BG-2, BG-3 and BG-4 were tested on recombinant WT-HMBS using DSF and tryptic proteolysis.

[6] = target: T2, WT-HMBS; test: Limited proteolysis by trypsin; assay type: biochemical; details: Table 3; 84 μM compound, 2% DMSO
Procedure: Limited proteolysis by trypsin was performed at 37° C. in 20 mM HEPES, 150 mM NaCl, 2% DMSO, pH 8.2, with 0.15 μg/μl HMBS in the absence (DMSO-control) or presence of 84 μM compound and 2% DMSO. The proteolysis was initiated by adding 1 μg/ml TPCK-treated trypsin (Sigma-Aldrich). After 30 min, aliquots were removed and transferred to Laemmli loading buffer containing 2 μg/ml soybean trypsin inhibitor. Samples resolved by electrophoresis with 10% Mini-Protean® TGX™ gels (Bio-Rad Laboratories, Inc.) were analyzed using the Image Lab™ software (Bio-Rad Laboratories, Inc.). The unpaired t-test (two tailed) was performed using GraphPad Prism.
Limited tryptic proteolysis was also applied to compound BG-1. Proteolysis of WT-HMBS provided three major bands with relative content 34.5±0.3%, 14.7±0.8% and 50.9±0.5%, corresponding to remaining full-length HMBS (˜42.5 kDa), and two fragments of ˜41.0 kDa and ˜31.5 kDa, respectively (FIG. 1). […] The effect of this compound at 84 μM on the steady-state enzyme kinetics of HMBS was then calculated (Table 2).

Compound: O=Cc1cc(Cc2ccccc2Cl)cc([N+](=O)[O-])c1O [drawing 43]
- pKd [1]: 4.05

Compound: O=C(c1ccc(Cl)c(Cl)c1)c1ccc(Cl)c([N+](=O)[O-])c1
- pKd [1]: 3.85

Compound: O=Cc1cc(Cc2ccccc2)cc([N+](=O)[O-])c1O [BG-3]
- ΔTm at 122 µM [5]: 6.6 °C
- Protection against tryptic proteolysis [6]: +/− (+/−, ±2%)

Compound: Cc1ccc(C(=O)c2ccc(Cl)cc2)cc1[N+](=O)[O-]
- pKd [1]: 5.15

Compound: O=Cc1cc(Cc2ccccc2Cl)cc([N+](=O)[O-])c1O [drawing 59]
- Binding [3]: Yes
- pKd [3]: 4.08
- Soluble in DMSO (100%) [2]: Yes
- solubility [2]: 384 µM (≈ 112 µg/mL)

Compound: O=Cc1cc(Cc2ccccc2Cl)ccc1O
- pKd [1]: 3.72

Compound: O=C(c1ccc(OCCN2CCCC2)cc1)c1ccc(N2CCCC2)c([N+](=O)[O-])c1
- pKd [1]: < 3.70

Compound: O=C(c1ccc(Cl)c([N+](=O)[O-])c1)c1ccc(Cl)c([N+](=O)[O-])c1
- KD [1]: mM range (no saturation with 500 μM)

Compound: O=C(c1ccc(Br)cc1)c1ccc(Cl)c([N+](=O)[O-])c1
- KD [1]: mM range (no saturation with 500 μM)

Compound: COc1ccc(C(O)c2ccc(Cl)c([N+](=O)[O-])c2)cc1 (stereo not drawn)
- pKd [1]: < 3.70

Compound: O=Cc1cc(Cc2ccccc2Cl)cc(C(F)(F)F)c1O
- Binding [3]: Yes
- pKd [3]: 5.03
- Soluble in DMSO (100%) [2]: Yes
- Solubility in buffer [2]: Yes

More lines, now with the values ahead:

- KD [1]: mM range (no saturation with 500 μM)
Compound: Cc1cccc(C)c1C(=O)c1ccc(Cl)c([N+](=O)[O-])c1

- pKd [1]: 3.52
Compound: COc1ccc(C(=O)c2ccc(Cl)c([N+](=O)[O-])c2)cc1

- Soluble in DMSO (100%) [2]: Yes
- solubility [2]: 52 µM (≈ 19.2 µg/mL)
Compound: O=C(c1ccc(OC(F)(F)F)cc1)c1ccc(Cl)c(C(F)(F)F)c1

- Binding [3]: Yes
- pKd [3]: 4.05
- Soluble in DMSO (100%) [2]: Yes
- Solubility in buffer [2]: Yes
Compound: OCc1cc(Cc2ccccc2Cl)cc(C(F)(F)F)c1O [drawing 62]

- KD [1]: mM range (no
Compound: O=C(c1ccccc1)c1ccc(Cl)c([N+](=O)[O-])c1 [drawing 44]

- HMBS activity in presence of compound [4]: activation of HMBS
Compound: OCc1cc(Cc2ccccc2Cl)cc(C(F)(F)F)c1O [Example 14, 4-(2-chlorobenzyl)-2-(hydroxymethyl)-6-(trifluoromethyl) phenol]

- ΔTm at 122 µM [5]: 4.7 °C
- Protection against tryptic proteolysis [6]: +/− (+/−, ±2%)
Compound: O=[N+]([O-])c1cc(Cc2ccccc2Cl)cc(CO)c1O [BG-4]

- KD [1]: mM range (no saturation with 500 μM)
Compound: CN(C(=O)c1ccc(Cl)c([N+](=O)[O-])c1)c1ccccc1

- KD [1]: mM range (no saturation with 500 μM)
Compound: O=C(c1ccncc1)c1ccc(Cl)c([N+](=O)[O-])c1

- pKd [1]: 3.96
Compound: O=C(c1ccc(Cl)cc1)c1cc([N+](=O)[O-])ccc1Cl

— patent publication US20230225991A1, “COMPOUNDS FOR USE IN THE TREATMENT OF ACUTE INTERMITTENT PORPHYRIA” (VESTLANDETS INNOVASJONSSELSKAP AS, priority 2019, published 2023)
